These results are taken from patent publication US6573289B1, “Naphthalene derivatives, their production and use” (Takeda Chemical Industries, Ltd., priority 1998, dated 2003).

One may read the IC50 as the concentration that gives 50% inhibition. High values mean weaker potency, low ones greater potency.

In one assay the target is T1, Rat Steroid C17-20-Lyase (Rattus norvegicus, UniProt P11715).
T1 construct: testicular microsomes were prepared by a series of centrifugation; from tissue; host or cells: testicular microsomes of 13-week old male SD rats
T1 sequence (P11715 1-507): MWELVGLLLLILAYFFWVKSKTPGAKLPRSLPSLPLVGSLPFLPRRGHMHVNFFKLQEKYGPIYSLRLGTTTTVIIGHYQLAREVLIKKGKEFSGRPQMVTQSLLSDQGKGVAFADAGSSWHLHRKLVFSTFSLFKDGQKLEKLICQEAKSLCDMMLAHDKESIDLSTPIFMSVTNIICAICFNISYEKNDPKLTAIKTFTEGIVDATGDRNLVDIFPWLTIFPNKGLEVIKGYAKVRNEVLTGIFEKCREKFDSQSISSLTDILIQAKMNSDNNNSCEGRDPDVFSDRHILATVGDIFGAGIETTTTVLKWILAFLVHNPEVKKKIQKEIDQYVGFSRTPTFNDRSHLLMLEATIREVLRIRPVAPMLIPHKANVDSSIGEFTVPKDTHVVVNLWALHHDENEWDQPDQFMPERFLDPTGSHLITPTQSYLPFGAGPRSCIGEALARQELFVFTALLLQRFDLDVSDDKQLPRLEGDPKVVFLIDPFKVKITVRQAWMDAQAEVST
The experiment in a line: Assay of inhibitory activity on rat steroid C17-20-lyase in vitro. The class given is biochemical. The note with it: rat testicular microsomes, 10 nM [1,2-3H]-17-α-hydroxyprogesterone, NADPH, 7 min at 37° C.; products testosterone and androstenedione reduced by 50%. The method, then:
Assay of Inhibitory Activity on Rat Steroid C17-20-Lyase In Vitro
Inhibitory activity was determined according to the method described in The Prostate, vol.26, 140-150(1995) with some modifications.
Testes excised from 13-week old, male SD rats were homogenized, and testicular microsomes were prepared by a series of centrifugation. The microsome protein (7 μg/10 μl) was added to 10 μl of 100 mM phosphate buffer (pH 7.4) in which 10 nM (final concentration) [1,2-3H]-17-α-hydroxyprogesterone, NADPH, and test compounds were dissolved. The reaction mixture was incubated for 7 min at 37° C., terminated by addition of 40 μl of Ethyl acetate, and briefly centrifuged. The substrate and the products (testosterone and androstenedione) in the upper phase were separated by silica gel thin layer chromatography. Detection of the spots and measurement of the radioactivity were performed by a BAS 2000 Bioimage analyzer. The concentration of the test compounds necessary to reduce the concentration of the products by 50% (The concentration in the control group in which no test compound was added was taken as 100%) was calculated, and shown in Table 1.

For assay [1], the system named is testosterone biosynthesis. The experiment in a line: Assay of inhibitory activity on testosterone biosynthesis in rat. It counts as in vivo. The note with it: male SD rats, oral, 50 mg/kg, serum testosterone 2 h later, percentage of control group. The method, then: Assay of Inhibitory Activity on Testosterone Biosynthesis in Rat
Test compounds were orally administered to 9-week old, male SD (Spague-Dawley) rats at a dose of 50 mg/kg. Two-h later blood was taken and testosterone concentration in serum was measured by radioimmunoassay. The percentage of the testosterone concentration of the groups of rats, which received test compounds, to that of the control group was calculated, and regarded as the inhibitory activity.

Structures can show the parent of a compound that is named as a salt.

On to `COc1ccc2cc(C(O)(c3c[nH]cn3)C(C)C)ccc2c1` (stereo not drawn) [Example 1, 1-(1H-Imidazol-4-yl)-1-(6-methoxynaphthalen-2-yl)-2-methyl-1-propanol], for which, at Rat Steroid C17-20-Lyase, it took 33 nM to reach half-maximal inhibition (IC50). Moreover, the “Inhibitory activity on testosterone biosynthesis (T/C, %)” value in assay [1] worked out at 2.0%.
At Rat Steroid C17-20-Lyase, `COc1ccc2cc(C(O)(c3c[nH]cn3)C3CC3)ccc2c1` (stereo not drawn) [Example 4, Cyclopropyl-(6-methoxynaphthalen-2-yl)-(1H-imidazol-4-yl)methanol Fumarate] came in with a half-maximal inhibitory concentration (IC50) of 64 nM.
The same measure, in the same setting: with `COc1ccc2cc(C(O)(c3ccncc3)C(C)C)ccc2c1` (stereo not drawn) [Example 9, 1-(6-Methoxynaphthalen-2-yl)-2-methyl-1-(pyridin-4-yl)-1-propanol] the figure was 32 nM.
For the compound `COc1ccc2cc(C(O)(c3c[nH]cn3)C(C)C)ccc2c1F` (stereo not drawn) [Example 11, 1-(5-Fluoro-6-methoxynaphthalen-2-yl)-1-(1H-imidazol-4-yl)-2-methyl-1-propanol], the 50% inhibitory concentration (IC50) against Rat Steroid C17-20-Lyase amounted to 32 nM. The “Inhibitory activity on testosterone biosynthesis (T/C, %)” value in assay [1] is 9.0%.
The corresponding values for `CCC(O)(c1ccc2cc(OC)ccc2c1)c1c[nH]cn1` (stereo not drawn) [Example 12, 1-(1H-Imidazol-4-yl)-1-(6-methoxynaphthalen-2-yl)-1-propanol] are 41 nM and 10%.
For the compound `COc1ccc2cc(C(C)(OC)c3c[nH]cn3)ccc2c1` (stereo not drawn) [Example 19, 4-[1-Methoxy-1-(6-methoxynaphthalen-2-yl)ethyl]-1H-imidazole], on Rat Steroid C17-20-Lyase, inhibition was half-maximal at 35 nM (IC50).
